Data from ChEMBL document CHEMBL1201862, “PubChem BioAssay data set” (2004).
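Following 48 hours of exposure in 96-well plates, responses at five concentrations were used to interpolate endpoints linearly. Here, GI50 denotes the concentration required for 50% inhibition of growth.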 Calls of active or inactive are those of the source. Cut-off read from the data, not from the text of the source: active = GI50 up to about 1.1 µM and inactive = higher.

Assays:
Test in all cases: NCI-60 cell line screen, 48 h
SK-MEL-2 = system: SK-MEL-2
HCT-15 = system: HCT-15
ACHN = system: ACHN
MOLT-4 = system: MOLT-4
LXFL 529 = system: LXFL 529
A549 = system: A549
IGROV-1 = system: IGROV-1
SF-268 = system: SF-268
UACC-257 = system: UACC-257
UO-31 = system: UO-31
U-251 = system: U-251
M14 = system: M14
A498 = system: A498
SNB-19 = system: SNB-19
OVCAR-3 = system: OVCAR-3
SK-MEL-28 = system: SK-MEL-28

| Structure (SMILES) | GI50 (SK-MEL-2) | GI50 (HCT-15) [µM] | GI50 (ACHN) | GI50 (MOLT-4) | GI50 (LXFL 529) | GI50 (A549) | GI50 (IGROV-1) | GI50 (SF-268) | GI50 (UACC-257) | GI50 (UO-31) | GI50 (U-251) | GI50 (M14) | GI50 (A498) | GI50 (SNB-19) | GI50 (OVCAR-3) | GI50 (SK-MEL-28) |
| --- | --- | --- | --- | --- | --- | --- | --- | --- | --- | --- | --- | --- | --- | --- | --- | --- |
| COc1ccc(C2S/C(=C\c3ccc(OC)cc3OC)C(=O)N2NC(=O)Cc2ccccc2)cc1 (stereo not drawn) | > 100 µM (inactive) | > 100 | > 100 µM (inactive) | > 100 µM (inactive) | > 100 µM (inactive) | > 100 µM (inactive) | > 100 µM (inactive) | > 100 µM (inactive) | > 100 µM (inactive) | > 100 µM (inactive) | > 100 µM (inactive) | > 100 µM (inactive) | > 100 µM (inactive) | – | – | – |
| COC(=O)CCC(NC(=S)N/N=C(\C)c1ccccn1)C(=O)OC (stereo not drawn) | > 100 µM (inactive) | 40.9 | 28.5 µM (inactive) | 24.2 µM (inactive) | 40.4 µM (inactive) | 66.8 µM (inactive) | 82.8 µM (inactive) | 52.1 µM (inactive) | 97.5 µM (inactive) | 38.1 µM (inactive) | 53.2 µM (inactive) | 31.6 µM (inactive) | > 100 µM (inactive) | > 100 µM (inactive) | 38.8 µM (inactive) | 66.7 µM (inactive) |
| CC(=O)O[C@H]1CC[C@@]2(C)C(=CC[C@@H]3C2CC[C@]2(C)Nc4nc5ccccc5cc4CC32)C1 (stereo partly drawn) | 17 µM (inactive) | 2.51 | 4.72 µM (inactive) | 3.3 µM (inactive) | 3.38 µM (inactive) | 3.34 µM (inactive) | 11.7 µM (inactive) | 4.2 µM (inactive) | 3.66 µM (inactive) | 4.92 µM (inactive) | 2.67 µM (inactive) | 2.19 µM (inactive) | 5.47 µM (inactive) | 2.97 µM (inactive) | 2.5 µM (inactive) | – |
| CC1CCC(C(C)(C)c2ccccc2)C(=O)C1 (stereo not drawn) | > 100 µM (inactive) | > 100 | > 100 µM (inactive) | > 100 µM (inactive) | > 100 µM (inactive) | > 100 µM (inactive) | > 100 µM (inactive) | > 100 µM (inactive) | > 100 µM (inactive) | 18.3 µM (inactive) | > 100 µM (inactive) | > 100 µM (inactive) | > 100 µM (inactive) | > 100 µM (inactive) | > 100 µM (inactive) | – |
| O=C1c2c(c(-c3ccccc3)c(-c3ccccc3)c(-c3ccccc3)c2-c2ccccc2)C(=O)N1c1cccc(Br)c1 | > 100 µM (inactive) | > 100 | – | > 100 µM (inactive) | > 100 µM (inactive) | > 100 µM (inactive) | > 100 µM (inactive) | > 100 µM (inactive) | > 100 µM (inactive) | > 100 µM (inactive) | > 100 µM (inactive) | 58.3 µM (inactive) | > 100 µM (inactive) | > 100 µM (inactive) | > 100 µM (inactive) | – |
| CCN1C(=O)C(=CN)C(=O)N(CC)C1=O | > 100 µM (inactive) | > 100 | > 100 µM (inactive) | > 100 µM (inactive) | > 100 µM (inactive) | > 100 µM (inactive) | > 100 µM (inactive) | > 100 µM (inactive) | > 100 µM (inactive) | 58.2 µM (inactive) | 10 µM (inactive) | > 100 µM (inactive) | > 100 µM (inactive) | > 100 µM (inactive) | > 100 µM (inactive) | > 100 µM (inactive) |
| Cc1ccc(S(=O)(=O)N/N=C/c2oc(-c3ccncc3)c(-c3ccncc3)c2[N+](=O)[O-])cc1 | > 100 µM (inactive) | > 100 | > 100 µM (inactive) | > 100 µM (inactive) | > 100 µM (inactive) | > 100 µM (inactive) | > 100 µM (inactive) | > 100 µM (inactive) | > 100 µM (inactive) | > 100 µM (inactive) | > 100 µM (inactive) | > 100 µM (inactive) | > 100 µM (inactive) | > 100 µM (inactive) | > 100 µM (inactive) | > 100 µM (inactive) |
| CC(=O)N1c2ccccc2N(C(C)=O)C1c1ccc(C2N(C(C)=O)c3ccccc3N2C(C)=O)[nH]1 | – | > 100 | – | > 100 µM (inactive) | > 100 µM (inactive) | > 100 µM (inactive) | > 100 µM (inactive) | > 100 µM (inactive) | > 100 µM (inactive) | > 100 µM (inactive) | > 100 µM (inactive) | > 100 µM (inactive) | > 100 µM (inactive) | > 100 µM (inactive) | > 100 µM (inactive) | – |
| CN(C)CCONC(=O)C12CC3CC(CC(C3)C1)C2 | > 100 µM (inactive) | > 100 | > 100 µM (inactive) | > 100 µM (inactive) | > 100 µM (inactive) | > 100 µM (inactive) | > 100 µM (inactive) | > 100 µM (inactive) | > 100 µM (inactive) | > 100 µM (inactive) | > 100 µM (inactive) | > 100 µM (inactive) | > 100 µM (inactive) | > 100 µM (inactive) | > 100 µM (inactive) | > 100 µM (inactive) |
| CCc1cccc(C(C)CC)c1/N=C(/NC(=O)c1ccccc1C(=O)N/C(=N/c1c(CC)cccc1C(C)CC)SC)SC (stereo not drawn) | 40.9 µM (inactive) | 40.1 | 36.1 µM (inactive) | 29.2 µM (inactive) | 39.9 µM (inactive) | 47.3 µM (inactive) | 38.7 µM (inactive) | 72.3 µM (inactive) | 54.3 µM (inactive) | 30.6 µM (inactive) | 26.2 µM (inactive) | 20 µM (inactive) | – | 49.8 µM (inactive) | 36.6 µM (inactive) | 45 µM (inactive) |
| Clc1ccc(OCc2nnc3n2N=C(c2ccc(Br)cc2)CS3)cc1 | 23.4 µM (inactive) | 51.3 | 23.2 µM (inactive) | > 100 µM (inactive) | 15.2 µM (inactive) | 25.5 µM (inactive) | – | – | 23.1 µM (inactive) | 2.8 µM (inactive) | 30.7 µM (inactive) | > 10 µM (inactive) | 5.36 µM (inactive) | 23.7 µM (inactive) | > 10 µM (inactive) | 28 µM (inactive) |
| C=CCO[C@H]1CC[C@@]2(C)C(CC[C@]3(C)C2CC=C2[C@@H]4[C@@H](C)C(C)CC[C@]4(C(=O)O)CCC23C)C1(C)C (stereo partly drawn) | – | – | 15.4 µM (inactive) | – | 12.6 µM (inactive) | 16.4 µM (inactive) | 16.6 µM (inactive) | 19.2 µM (inactive) | 16.9 µM (inactive) | 15 µM (inactive) | 16.1 µM (inactive) | 17.5 µM (inactive) | 17.3 µM (inactive) | 17.1 µM (inactive) | 15.7 µM (inactive) | 15.6 µM (inactive) |
| CCOc1ccccc1NC(=O)C(=O)c1c(O)c2ccc(O)cc2oc1=O | > 100 µM (inactive) | > 100 | > 100 µM (inactive) | > 100 µM (inactive) | > 100 µM (inactive) | > 100 µM (inactive) | > 100 µM (inactive) | > 100 µM (inactive) | > 100 µM (inactive) | > 100 µM (inactive) | > 100 µM (inactive) | > 100 µM (inactive) | > 100 µM (inactive) | > 100 µM (inactive) | > 100 µM (inactive) | > 100 µM (inactive) |
| CCCC(C)n1c(C)nc2c1C(=O)c1ccccc1C2=O (stereo not drawn) | 20.7 µM (inactive) | 5.97 | 27.8 µM (inactive) | 18.5 µM (inactive) | 12.7 µM (inactive) | 21 µM (inactive) | 37.4 µM (inactive) | 19.6 µM (inactive) | 22.4 µM (inactive) | 24.7 µM (inactive) | 12.2 µM (inactive) | 34.6 µM (inactive) | – | 37 µM (inactive) | 25.9 µM (inactive) | 33.7 µM (inactive) |
| CC(C)(c1ccccc1)c1ccc(Oc2ccc3c(c2)-c2nc-3nc3[nH]c(nc4nc(nc5[nH]c(n2)c2ccc(Oc6ccc(C(C)(C)c7ccccc7)cc6)cc52)-c2cc(Oc5ccc(C(C)(C)c6ccccc6)cc5)ccc2-4)c2ccc(Oc4ccc(C(C)(C)c5ccccc5)cc4)cc32)cc1 | > 100 µM (inactive) | – | > 100 µM (inactive) | > 100 µM (inactive) | > 100 µM (inactive) | > 100 µM (inactive) | > 100 µM (inactive) | – | > 100 µM (inactive) | > 100 µM (inactive) | 71.3 µM (inactive) | > 100 µM (inactive) | > 100 µM (inactive) | 92 µM (inactive) | – | > 100 µM (inactive) |
| O=C1c2nn(-c3ccccc3)nc2C(c2ccccc2)N1c1ccccc1 (stereo not drawn) | > 100 µM (inactive) | > 100 | > 100 µM (inactive) | > 100 µM (inactive) | > 100 µM (inactive) | > 100 µM (inactive) | 77.6 µM (inactive) | > 100 µM (inactive) | > 100 µM (inactive) | > 100 µM (inactive) | 95.3 µM (inactive) | > 100 µM (inactive) | – | > 100 µM (inactive) | > 100 µM (inactive) | > 100 µM (inactive) |
| CC1CN(c2ccc(Cl)cc2)CC(C)OC(=O)O1 (stereo not drawn) | > 100 µM (inactive) | > 100 | > 100 µM (inactive) | – | > 100 µM (inactive) | > 100 µM (inactive) | > 100 µM (inactive) | > 100 µM (inactive) | > 100 µM (inactive) | > 100 µM (inactive) | > 100 µM (inactive) | > 100 µM (inactive) | – | > 100 µM (inactive) | > 100 µM (inactive) | > 100 µM (inactive) |
| CN(C)/N=C(/c1nc2ccc([N+](=O)[O-])cc2nc1O)C(O)c1ccco1 (stereo not drawn) | – | 26.2 | 35.4 µM (inactive) | > 100 µM (inactive) | 58.1 µM (inactive) | > 100 µM (inactive) | 90.4 µM (inactive) | 84.9 µM (inactive) | > 100 µM (inactive) | 2.51 µM (inactive) | > 100 µM (inactive) | > 100 µM (inactive) | – | > 100 µM (inactive) | > 100 µM (inactive) | > 100 µM (inactive) |
